Measured values published in patent publication US9284325B2, “Spectinamides as anti-tuberculosis agents” (UNIVERSITY OF TENNESSEE RESEARCH FOUNDATION, priority 2009, dated 2016).
≈ marks a conversion by molar mass, not a printed value. Structures can show the parent of a compound that is named as a salt.

How the values were obtained:
[1] = test system: Acinetobacter baumannii ATCC 19606; test: MIC determination by microbroth dilution; assay type: cell-based; conditions: ATCC19606
[2] = test system: Strep. pneumoniae DAW27 or strain R6; test: MIC determination by microbroth dilution; assay type: cell-based, Streptococcus pneumoniae; conditions: Streptococcus pneumoniae; Strep. pneumoniae DAW27 or strain R6 (for 1443-1544); read-out: MIC S. pneumoniae
[3] = test system: Burkholderia cepacia ATCC 25416; test: MIC determination by microbroth dilution; assay type: cell-based; conditions: ATCC25416, read-out: MIC B. cepcia
P. aeruginosa PAO1 = test: MIC determination by microbroth dilution; assay type: cell-based, Pseudomonas aeruginosa; conditions: Pseudomonas aeruginosa
[4] = test system: Proteus vulgaris ATCC 33420; test: MIC determination by microbroth dilution; assay type: cell-based; conditions: ATCC33420
E. coli K12 = test: MIC determination by microbroth dilution; assay type: cell-based, Escherichia coli; conditions: Escherichia coli, K12
[5] = test system: S. aureus 8325 or strain ATCC 29213; test: MIC determination by microbroth dilution; assay type: cell-based, Staphylococcus aureus; conditions: Staphylococcus aureus, ATCC29213; S. aureus 8325 or strain ATCC 29213 (for 1471-1544)
E. faecalis ATCC 33186 = test: MIC determination by microbroth dilution; assay type: cell-based, Enterococcus faecalis; conditions: Enterococcus faecalis, ATCC33186
B. anthracis Sterne 34F2 = test: microbe, parasite or virus in culture; assay type: cell-based, Bacillus anthracis; conditions: Bacillus anthracis, STERNE34F2, read-out: MIC B. anthracis 34F2
[6] = test system: Strep. pyogenes ATCC 700294; test: MIC determination by microbroth dilution; assay type: cell-based, Streptococcus pyogenes; conditions: Streptococcus pyogenes, ATCC700294, read-out: MIC S. pyogenes
[7] = test system: Proteus mirabilis ATCC 25933; test: MIC determination by microbroth dilution; assay type: cell-based; conditions: ATCC25933
[8] = test system: Strenotrophomonas maltophilia ATCC 13637; test: MIC determination by microbroth dilution; assay type: cell-based
M. tuberculosis H37Rv = test: MIC determination by microbroth dilution, anti-tuberculosis activity; assay type: cell-based, Mycobacterium tuberculosis; conditions: Mycobacterium tuberculosis, H37RV, 168 h; read-out: MIC
[9] = test system: Klebsiella pneumoniae ATCC 33495; test: MIC determination by microbroth dilution; assay type: cell-based; conditions: ATCC33495
E. coli K12 ΔtolC = test: microbe, parasite or virus in culture; assay type: cell-based; conditions: Escherichia coli, read-out: MIC E. coli K12 ΔtolC

Structure (SMILES) | MIC [1] [µg/mL] | MIC [2] [µg/mL] | MIC [3] [µg/mL] | MIC (P. aeruginosa PAO1) [µg/mL] | MIC [4] [µg/mL] | MIC (E. coli K12) [µg/mL] | MIC [5] [µg/mL] | MIC (E. faecalis ATCC 33186) [µg/mL] | MIC (B. anthracis Sterne 34F2) [µg/mL] | MIC [6] [µg/mL] | MIC [7] [µg/mL] | MIC [8] [µg/mL] | MIC (M. tuberculosis H37Rv) [µg/mL] | MIC [9] [µg/mL] | MIC (E. coli K12 ΔtolC) [µg/mL]
CN[C@@H]1[C@H](O)[C@H](NC)C2O[C@]3(O)C(OC2[C@H]1O)O[C@H](C)C[C@H]3NC(=O)Cc1cccc(C)c1 (stereo partly drawn) [Compound 1412, 3′-Dihydro-3′-deoxy-4(R)-m-tolylacetylamino spectinomycin Dihydrochloride] | > 200 | 25 | > 200 | 100 | > 200 | > 200 | 50 | 200 | 100 | 25 | > 200 | > 200 | 25 | > 200 | 200
CN[C@@H]1[C@H](O)[C@H](NC)C2O[C@]3(O)C(OC2[C@H]1O)O[C@H](C)C[C@H]3NC(=O)Cc1nccs1 (stereo partly drawn) [Compound 1489, 3′-Dihydro-3′-deoxy-4(R)-(thiazol-2-yl)acetylamino spectinomycin tetradrobromide] | > 200 | 12.5 (≈ 27.3 µM) | > 200 | > 200 | > 200 | 200 (≈ 436 µM) | 100 (≈ 218 µM) | 100 (≈ 218 µM) | > 200 | 12.5 (≈ 27.3 µM) | > 200 | > 200 | 6.25 (≈ 13.6 µM) | > 200 | 50 (≈ 109 µM)
CN[C@@H]1[C@H](O)[C@H](NC)C2O[C@]3(O)C(OC2[C@H]1O)O[C@H](C)C[C@H]3NC(=O)[C@@H](C)N (stereo partly drawn) [Compound 1501, 3′-Dihydro-3′-deoxy-4(R)[2(R)-amino]propanoylamino spectinomycin Trihydrochloride] | > 200 | > 200 | > 200 | > 200 | > 200 | > 200 | > 200 | > 200 | > 200 | > 200 | > 200 | > 200 | > 200 | > 200 | > 200
CN[C@@H]1[C@H](O)[C@H](NC)C2O[C@]3(O)C(OC2[C@H]1O)O[C@H](C)C[C@H]3NC(=O)Cc1cn(Cc2ccccc2)nn1 (stereo partly drawn) [Compound 1537, 3′-Dihydro-3′-deoxy-4(R)-2-(1-benzyl-1H-1,2,3-triazol-4-yl)acetyl-amino spectinomycin tetrabromide] | > 200 | 3.1 (≈ 5.82 µM) | > 200 | > 200 | > 200 | > 200 | 100 (≈ 188 µM) | 25 (≈ 46.9 µM) | > 200 | 3.1 (≈ 5.82 µM) | > 200 | > 200 | 50 (≈ 93.9 µM) | > 200 | 12.5 (≈ 23.5 µM)
CN[C@@H]1[C@H](O)[C@H](NC)C2O[C@]3(O)C(OC2[C@H]1O)O[C@H](C)C[C@H]3NC(=O)CCc1ccccn1 (stereo partly drawn) [Compound 1518, 3′-Dihydro-3′-deoxy-4(R)-(pyridin-2-yl)propanoylamino spectinomycin trihydrobromide] | > 200 | 12.5 | > 200 | > 200 | > 200 | > 200 | 200 | > 200 | > 200 | 6.25 | > 200 | > 200 | 50 | > 200 | 50
CN[C@@H]1[C@H](O)[C@H](NC)C2O[C@]3(O)C(OC2[C@H]1O)O[C@H](C)C[C@H]3NCCc1ccccc1 (stereo partly drawn) [Compound 1450, 3′-Dihydro-3′-deoxy-4(R)-2-phenylethylamino spectinomycin Trihydrochloride] | – | – | – | – | – | – | – | – | – | – | – | – | 200 | – | –
CN[C@@H]1[C@H](O)[C@H](NC)C2O[C@]3(O)C(OC2[C@H]1O)O[C@H](C)C[C@H]3NC(=O)Cc1csc(Nc2ccc(OC(F)(F)F)cc2)n1 (stereo partly drawn) [Compound 1540, 3′-Dihydro-3′-deoxy-4(R)-(2-((4-(trifluoromethoxy)phenyl)amino)-thiazol-4-yl)acetylamino spectinomycin tribromide] | > 200 | 6.25 | > 200 | 25 | > 200 | > 200 | 100 | 25 | > 200 | 6.25 | > 200 | 200 | 6.25 | > 200 | 12.5
CN[C@@H]1[C@H](O)[C@H](NC)C2O[C@]3(O)C(OC2[C@H]1O)O[C@H](C)C[C@H]3NC(=O)Cc1cccc(OC)c1 (stereo partly drawn) [Compound 1400, 3′-Dihydro-3′-deoxy-4(R)-(3-methoxy-phenyl)acetylamino spectinomycin Dihydrochloride] | > 200 | 100 | > 200 | 100 | > 200 | > 200 | > 200 | 100 | 200 | > 200 | > 200 | > 200 | 12.5 | > 200 | > 200
CN[C@@H]1[C@H](O)[C@H](NC)C2O[C@]3(O)C(OC2[C@H]1O)O[C@H](C)C[C@H]3NC(=O)CCN (stereo partly drawn) [Compound 1469, 3′-Dihydro-3′-deoxy-4(R)-(3-amino)propanoylamino spectinomycin Trihydrochloride] | > 200 | 50 | > 200 | > 200 | > 200 | > 200 | > 200 | 50 | 50 | 100 | > 200 | 25 | 200 | > 200 | 100
CN[C@@H]1[C@H](O)[C@H](NC)C2O[C@]3(O)C(OC2[C@H]1O)O[C@H](C)C[C@H]3NC(=O)Cc1csc(-c2ccccc2)n1 (stereo partly drawn) [Compound 1517, 3′-Dihydro-3′-deoxy-4(R)-(2-phenylthiazol-4-yl)acetylamino spectinomycin trihydrobromide] | > 200 | 6.25 | > 200 | > 200 | > 200 | > 200 | 200 | 100 | > 200 | 6.25 | > 200 | > 200 | 50 | > 200 | 200
CN[C@@H]1[C@H](O)[C@H](NC)C2O[C@]3(O)C(OC2[C@@H]1O)O[C@H](C)C[C@H]3NC(=O)Cc1nc2ccccc2s1 (stereo partly drawn) [Compound 1491, 3′-Dihydro-3′-deoxy-4(R)-(benzothiazol-2-yl)acetylamino spectinomycin trihydrobromide] | > 200 | 6.25 | > 200 | > 200 | > 200 | 200 | 100 | 25 | > 200 | 12.5 | > 200 | > 200 | 1.6 | > 200 | 12.5
CC[C@H](C)[C@H](N)C(=O)N[C@@H]1C[C@@H](C)OC2OC3C(O[C@]21O)[C@@H](NC)[C@@H](O)[C@@H](NC)[C@@H]3O (stereo partly drawn) [Compound 1485, 3′-Dihydro-3′-deoxy-4(R)-[(2S,3S)-2-amino,3-methyl]pentanoylamino spectinomycin Trihydrochloride] | > 200 | 25 | > 200 | > 200 | > 200 | – | > 200 | > 200 | > 200 | 25 | > 200 | > 200 | 200 | > 200 | > 200
CN[C@@H]1[C@H](O)[C@H](NC)C2O[C@]3(O)C(OC2[C@H]1O)O[C@H](C)C[C@H]3NC(=O)[C@@H](N)C(C)C (stereo partly drawn) [Compound 1486, 3′-Dihydro-3′-deoxy-4(R)-[2(S)-amino,3-methyl]butanoylamino spectinomycin Trihydrochloride] | > 200 | > 200 | > 200 | > 200 | > 200 | – | > 200 | > 200 | > 200 | 50 | > 200 | > 200 | 200 | > 200 | > 200
